Source: patent publication US20250263376A1, “(E)-N-CINNAMOYLAMINOALKANOLS WITH MELANOGENESIS INHIBITORY ACTIVITY” (Uniwersytet Jagiellonski, priority 2024, published 2025)
Like-named read-outs stand apart in the source and are kept apart here.

Tests used:
[1] = tested on: human reconstructed epidermis Episkin; test: Skin irritation test in reconstructed human epidermis Episkin; type: cell-based; settings: 15 min exposure
From the text: Skin Irritation Tests in a Reconstructed Human Epidermis Model (Episkin™)

tyrosinase [2] = settings: literature [11], cited from earlier work
[3] = tested on: reconstituted human epidermis EpiDerm; settings: 21 h, 0.01 %
Protocol: Phototoxicity Studies in a Model of Reconstructed Human Epidermis.
An epidermis with an area of 0.6 cm^2 was used. After receiving the tissue, the inserts were transferred to fresh medium and incubated in an incubator (5% CO2, 37° C.). All work during epidermis culture and application of the tested compounds and formulations was carried out in a laminar air flow chamber, using aseptic principles and sterile reagents and utensils. […] The applied solutions and formulation were spread on the surface of the inserts using a sterile glass bulb headed Pasteur pipette. The plates were incubated in the incubator for 21 hours, after which the inserts were transferred to new 6-well plates with 0.9 mL DBPS. 1 plate was exposed to UVA radiation at a dose of 6 J/cm^2 using a solar light simulator (Solar Simulator, Atlas) as its source (+UVA plate). The second plate was placed in a dark place outside the incubator for the same period of time (−UVA plate). After exposure, inserts from both plates were rinsed with DPBS, dried with a sterile cotton bud and placed in new plates containing 0.9 mL of fresh growth medium and incubated for 21 hours. […] After this time, the formed formazan was extracted into isopropanol and the absorbance of all samples was read at 270 nm.

[4] = tested on: Balb/c 3T3 murine fibroblast cell line; test: Phototoxicity, neutral red uptake in Balb/c 3T3 fibroblasts
Protocol: d) Phototoxicity Assessment Using the Balb/c 3T3 Murine Fibroblast Cell Line
Balb/c 3T3 cells, which are an immortalized murine fibroblast cell line, were purchased at ATTC and cultured in the medium recommended by the manufacturer (DMEM GlutaMAX, newborn calf serum (BCS), antibiotics). After multiplication, cells were placed in 96-well plates, which were incubated for 24 hours, after which all wells of the plates were washed with 150 μL of balanced salt solution (HBSS). Then, after drying the plates, 100 μL of a solution of the tested compounds in HBSS with 2% FBS was added to each well and incubated for an hour. After this time, some of the plates were irradiated using the Suntest CPS+sunlight simulator from Atlas with appropriate filters cutting off radiation with a wavelength <320 nm (UVA radiation intensity 5 J/cm^2). The second part of the plates was placed in radiation-free conditions for the same period of time. After the exposure time, the liquid was removed from all plates and the wells were washed twice with 150 μL of HBSS, then supplemented with fresh culture medium and incubated for 24 hours in an incubator (37° C., 5% CO2). Viability was assessed in the neutral red uptake test, which is based on the ability of the dye to penetrate only into living cells. Dye uptake was confirmed by absorbance measurement at 540 nm. […] The appropriate coefficients were also calculated: mean phototoxic effect (MPE) and photoirritation factor (PIF). PIF is the ratio of the IC50 values of unirradiated to irradiated cells, while MPE is based on the comparison of concentration-response curves.

[5] = cream, 7-day application before UV exposure, compared to untreated skin; literature [8]; cited from earlier work
tyrosinase [6] = settings: literature [6]; read-out: IC50, tyrosinase diphenolase activity; cited from earlier work

CCCCCCCCCCCCOS(=O)(=O)[O-].[Na+] [SDS, sodium dodecyl sulphate]
IL-1α concentration in the culture medium ([1]; 42 h incubation, compounds as PEG400 solutions 26 mg/cm^2, SDS 5% aqueous): >250 pg/mL | tissue viability ([1]; compared to the negative control (PBS and PEG400), 5% aqueous SDS): 23.8%

CCOC(=O)[C@H](Cc1ccccc1)NC(=O)/C=C/c1ccc(O)c(OC)c1 [N-[3-(4-hydroxy-3-methoxyphenyl)-1-oxo-2-propen-1-yl]-L-phenylalanine ethyl ester]
type of tyrosinase inhibition (tyrosinase [2]): mixed type of inhibition | IC50 (tyrosinase [2]; read-out: IC50, tyrosinase inhibition): 0.185 ± 0.005 µM

CN(C)CCCN1c2ccccc2Sc2ccc(Cl)cc21 [Chlorpromazine, reference compound]
Viability [% relative to water] ± SD, +UVA [3]: 26.97 ± 6.05 % relative to water | Viability [% relative to water] ± SD, −UVA [3]: 99.52 ± 9.41 % relative to water | phototoxic potential [4]: clearly indicate its phototoxic potential | MPE (mean phototoxic effect) ([4]; mouse, 1 h): 0.499 | PIF (photoirritation factor) ([4]; mouse, 1 h): 25.618

O=C(O)C=Cc1ccc(O)cc1 [4-Hydroxycinnamic acid]
inhibition of erythema formation [5]: 77% | IC50 (tyrosinase [6]): 500 µM
